Source: patent US12103915B2, “TEAD inhibitors and methods of uses thereof” (Insilico Medicine IP Limited, priority 2022, dated 2024)

Tests used:
TEAD4 = TEAD4 (Homo sapiens, UniProt Q15561); assay: Thermal shift assay TEAD4; assay type: binding
Outline: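 Compounds tested at 1 and 10 μM (0.1% DMSO, PBS) against TEAD4 protein at 0.1 mg/ml final. Melting followed by thermal shift dye fluorescence during a qPCR instrument ramp.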

[1] = Pharmacokinetic profile evaluation in mice; assay type: in vivo, CD-1 mice; conditions: CD-1; mouse, oral administration at 10 mg/kg, plasma
Description: Example C: Pharmacokinetic Profile Evaluation
Three CD-1 mice of SPF. (Sino-British SIPPR/BK Lab Animal Ltd, Shanghai.) were intravenously administrated with given compounds (Formulation: 5% DMSO+10% Solutol+85% Saline) or orally gavage administrated with given compounds (Formulation: 5% DMSO+10% Solutol+85% Saline). The blood samples were taken via cephalic vein at timepoints 0.083 h, 0.25 h, 0.5 h, 1 h, 2 h, 4 h, 8 h, and 24 h after intravenous (iv) administration or at timepoints 0.25 h, 0.5 h, 1 h, 2 h, 4 h, 6 h, 8 h, and 24 h after oral gavage administration, 30 μL/time point. Blood samples were placed in tubes containing K2-EDTA and stored on ice until centrifuged. The blood samples were centrifuged at 6800 g for 6 minutes at 2-8° C. within 1 h after collected and stored frozen at approximately −80° C. An aliquot of 20 μL plasma samples were protein precipitated with 400 μL MeOH in which contains 100 ng/mL Verapamil (IS). The mixture was vortexed for 1 min and centrifuged at 18000 g for 10 min. Transfer 400 μL supernatant to 96 well plates. An aliquot of 5 μL supernatant was injected for LC-MS/MS analysis by LC-MS/MS-27 (TQ6500+) instrument. The analytical results were confirmed using quality control samples for intra-assay variation. The accuracy of >66.7% of the quality control samples should be between 80-120% of the known value(s). Standard set of parameters including Area Under the Curve (AUC(0-t)), maximum plasma concentration (Cmax), elimination half-life (T1/2) will be calculated using noncompartmental analysis modules in FDA certified pharmacokinetic program Phoenix WinNonlin 7.0 (Pharsight, USA).

TEAD3 = TEAD3 (Homo sapiens, UniProt Q99594); assay: Thermal shift assay TEAD3; assay type: binding
Outline: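 Compounds at 1 or 10 μM (0.1% DMSO, PBS dilution) mixed with 0.1 mg/ml final TEAD3 and thermal shift dye, then run through a qPCR melt to follow protein unfolding.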

TEAD2 = TEAD2 (Homo sapiens, UniProt Q15562); assay: Thermal shift assay TEAD2; assay type: binding
Outline: (§1)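 Protein melt reactions contained TEAD1 (0.2 mg/ml final) or TEAD2 (0.08 mg/ml final) plus compound at 1 or 10 μM in 0.1% DMSO. Thermal unfolding was followed by dye fluorescence on a qPCR instrument.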

TEAD1 = TEAD1 (Homo sapiens, UniProt P28347); assay: Thermal shift assay TEAD1; assay type: binding
Outline: as §1

[2] = tested on: human lung cancer NCI-H226 xenograft; assay: In vivo anti-tumor efficacy, NCI-H226 xenograft model (TGI); parameters: species or system BALB/c Nude mice; conditions: QD, oral, tumor volume at day 21
Description: (§2) Example D: In Vivo Pharmacodynamic and Efficacy Study
(§3) The objective of the research is to evaluate the in vivo anti-tumor efficacy of Example 58b, 64, 75a in human lung cancer NCI-H226 xenograft model in BALB/c Nude mice. (Jiangsu GemPharmatech Co., Ltd, female, 6-9 weeks)
(§4) The NCI-H226 cancer cells was maintained in vitro with RPMI1640 medium supplemented with 10% fetal bovine serum at 37° C. in an atmosphere of 5% CO2 in the air. The cells in exponential growth phase will be harvested and quantitated by cell counter before tumor inoculation. Each mouse was inoculated subcutaneously it the right front flank region with NCI-H226 tumor cells (lx 107) in 0.2 ml of PBS mixed with Matrigel (1:1) for tumor development. Animals were randomized when the average tumor volume reached 150-200 mm^3. The test article was administered to the mice orally once a day from the day of grouping, total 21 days (QD×21 Days). Body weight change of animals was monitored regularly as an indicator of drug safety. The major endpoint was to see if the tumor growth could be delayed or mice could be cured. Tumor sizes were measured two times per week in two dimensions using a caliper, and the volume were expressed in mm^3 using the formula: V=0.5a×b^2 where a and b are the long and short diameters of the tumor, respectively.
(§5) The tumor volume were then used for the calculations of TGI. TGI is calculated for each group using the formula: TGI (%)=[1−(Ti−T0)/(Ci−C0)]×100; Ti is the average tumor volume of a treatment group on a given day, T0 is the average tumor volume of the treatment group on the first day of treatment, Ci is the average tumor volume of the vehicle control group on the same day with Ti, and C0 is the average tumor volume of the vehicle group on the first day of treatment. To compare tumor volumes of different groups at a pre-specified day, Bartlett's test was used to check the assumption of homogeneity of variance across all groups.

NCI-H226 cells = assay: Cell growth assay (CellTiter-Glo); assay type: cell-based, human; conditions: Homo sapiens, NCI-H226, 168 h, 7 days treatment, CellTiter-Glo luminescence, read-out: H226 CTG IC50
[3] = Body weight change in NCI-H226 xenograft study; assay type: in vivo, BALB/c Nude mice; conditions: QD, oral, day 21 compared to day 1
Description: as §2, §3, §4, §5

Sequence of TEAD3 (Q99594 whole entry, species assumed): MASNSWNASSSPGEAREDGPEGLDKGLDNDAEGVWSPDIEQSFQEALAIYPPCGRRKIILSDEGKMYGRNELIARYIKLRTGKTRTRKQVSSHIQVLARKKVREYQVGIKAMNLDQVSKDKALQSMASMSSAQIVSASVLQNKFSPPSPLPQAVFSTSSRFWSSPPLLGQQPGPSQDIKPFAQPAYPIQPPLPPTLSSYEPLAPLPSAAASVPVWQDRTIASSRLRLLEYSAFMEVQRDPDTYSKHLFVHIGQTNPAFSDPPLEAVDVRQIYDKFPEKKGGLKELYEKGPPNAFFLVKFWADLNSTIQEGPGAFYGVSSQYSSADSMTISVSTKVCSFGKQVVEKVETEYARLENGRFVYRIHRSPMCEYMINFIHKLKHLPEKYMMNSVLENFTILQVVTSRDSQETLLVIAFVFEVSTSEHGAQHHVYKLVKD
Sequence of TEAD2 (Q15562 whole entry, species assumed): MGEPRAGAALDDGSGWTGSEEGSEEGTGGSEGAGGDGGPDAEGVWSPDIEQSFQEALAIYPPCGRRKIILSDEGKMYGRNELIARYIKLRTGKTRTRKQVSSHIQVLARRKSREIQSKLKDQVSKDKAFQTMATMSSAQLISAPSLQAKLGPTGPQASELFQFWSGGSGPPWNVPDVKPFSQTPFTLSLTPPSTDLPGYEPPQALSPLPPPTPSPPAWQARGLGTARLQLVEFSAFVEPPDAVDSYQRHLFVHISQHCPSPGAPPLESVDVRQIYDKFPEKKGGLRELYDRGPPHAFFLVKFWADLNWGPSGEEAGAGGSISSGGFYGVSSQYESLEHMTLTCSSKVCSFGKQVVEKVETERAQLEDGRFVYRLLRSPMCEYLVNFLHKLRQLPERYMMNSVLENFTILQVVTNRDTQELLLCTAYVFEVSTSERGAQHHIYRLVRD
Sequence of TEAD4 (Q15561 whole entry, species assumed): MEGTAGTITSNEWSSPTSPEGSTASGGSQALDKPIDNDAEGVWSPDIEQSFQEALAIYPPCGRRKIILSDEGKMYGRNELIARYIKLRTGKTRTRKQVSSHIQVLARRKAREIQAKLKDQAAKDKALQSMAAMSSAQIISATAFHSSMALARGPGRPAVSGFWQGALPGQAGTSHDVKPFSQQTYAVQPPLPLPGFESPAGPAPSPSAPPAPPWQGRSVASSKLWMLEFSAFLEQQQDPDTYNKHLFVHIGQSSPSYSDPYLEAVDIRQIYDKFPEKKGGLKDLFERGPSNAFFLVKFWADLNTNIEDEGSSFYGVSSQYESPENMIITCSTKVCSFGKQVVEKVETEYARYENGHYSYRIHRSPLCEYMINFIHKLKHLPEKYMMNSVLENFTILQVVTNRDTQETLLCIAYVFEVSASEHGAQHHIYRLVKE
Sequence of TEAD1 (P28347 whole entry, species assumed): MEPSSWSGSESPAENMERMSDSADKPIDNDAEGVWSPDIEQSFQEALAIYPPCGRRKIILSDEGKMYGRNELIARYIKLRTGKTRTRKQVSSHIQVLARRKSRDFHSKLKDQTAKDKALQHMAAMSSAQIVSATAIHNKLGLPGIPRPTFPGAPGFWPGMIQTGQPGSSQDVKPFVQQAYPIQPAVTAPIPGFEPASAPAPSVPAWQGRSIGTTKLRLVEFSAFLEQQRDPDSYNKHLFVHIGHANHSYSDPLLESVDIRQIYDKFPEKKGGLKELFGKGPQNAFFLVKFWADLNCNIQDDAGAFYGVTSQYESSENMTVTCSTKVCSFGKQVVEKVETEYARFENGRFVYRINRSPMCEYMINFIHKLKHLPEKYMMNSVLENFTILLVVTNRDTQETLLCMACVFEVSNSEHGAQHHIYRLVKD

TEAD4 ΔTm (TEAD4) [°C] | AUC(0-t) [1] [ng·h/mL] | Cmax [1] [ng/mL] | half-life [1] [min] | TEAD3 ΔTm (TEAD3) [°C] | TEAD2 ΔTm (TEAD2) [°C] | TEAD1 ΔTm (TEAD1) [°C] | IC50 (NCI-H226 cells) [nM] | SMILES | TGI ([2]; 1 mg/kg) [%] | TGI ([2]; 3 mg/kg) [%] | TGI ([2]; 10 mg/kg) [%] | TGI ([2]; 30 mg/kg) [%] | Body weight change ([3]; 1 mg/kg) | Body weight change ([3]; 3 mg/kg) | Body weight change ([3]; 10 mg/kg) | Body weight change ([3]; 30 mg/kg) | TGI ([2]; 60 mg/kg) [%] | Body weight change ([3]; 60 mg/kg)
11.3 | 17200 | 1710 | 216 | 10.9 | 12.9 | 9.2 | < 100 | Cn1cc2cc(Oc3ccc(C(F)(F)F)cc3)cc([C@H]3C[C@@H]3C(=O)N3CC(O)C3)c2n1 (single isomer, unassigned) [Example 58b] | 95 | 103 | 128 | 145 | +8.2% | +4.0% | +1.6% | +2.9% | – | –
11.3 | 10700 | 1650 | 138 | 10.0 | 12.2 | 9.0 | < 100 | Cn1cc2cc(Oc3ccc(C(F)(F)F)cc3)cc([C@@H]3C[C@H]3C(=O)N3CC[C@H](O)[C@@H](O)C3)c2n1 (single isomer, unassigned) [Example 75a] | – | 90 | 119 | 150 | – | +6.7% | +3.0% | +4.0% | 149 | +1.5%
10 | 16100 | 2470 | 156 | 3.0 | 7.6 | 9.1 | < 100 | CNS(=O)(=O)CCc1cc(-c2ccc(C(F)(F)F)cc2)cc2cn(C)nc12 [Example 44] | – | – | – | – | – | – | – | – | – | –
10.6 | 11500 | 3100 | 132 | 4 | 10.3 | 9.3 | 100 to 500 | CNS(=O)(=O)CCc1cc(Oc2ccc(C(F)(F)F)cc2)cc2cn(C)nc12 [Example 45] | – | – | – | – | – | – | – | – | – | –
